Experimental data from PubChem BioAssay AID256 (DTP/NCI, 2004).
Toxic doses and inconclusive results are not listed.

Tested on: CD2F1 mice, L1210 leukemia ip, survival T/C
Experiment: NCI In Vivo Anticancer Drug Screen. Data for tumor model L1210 Leukemia (intraperitoneal) in CD2F1 (CDF1) mice
Conditions: higher = longer survival
Summary of the method: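 In this screen, transplantable tumors were grown in mice given either the compound or its vehicle. Results were expressed as the treated measurement relative to the control measurement.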

[1] = endpoint: mean survival time, dose: 100.0 mg/kg/injection, schedule: Q01DX009 (ip), vehicle: saline with Tween-80
[2] = endpoint: mean survival time, dose: 200.0 mg/kg/injection, schedule: Q01DX009 (ip), vehicle: saline with Tween-80
[3] = endpoint: mean survival time, dose: 400.0 mg/kg/injection, schedule: Q01DX009 (ip), vehicle: saline with Tween-80
[4] = endpoint: mean survival time, dose: 100.0 mg/kg/injection, schedule: Q04DX003 (ip), vehicle: saline with Tween-80
[5] = endpoint: mean survival time, dose: 200.0 mg/kg/injection, schedule: Q04DX003 (ip), vehicle: saline with Tween-80
[6] = endpoint: mean survival time, dose: 400.0 mg/kg/injection, schedule: Q04DX003 (ip), vehicle: saline with Tween-80
[7] = endpoint: mean survival time, dose: 50.0 mg/kg/injection, schedule: Q01DX009 (ip), vehicle: saline with Tween-80
[8] = endpoint: mean survival time, dose: 25.0 mg/kg/injection, schedule: Q04DX002 (ip), vehicle: saline with Tween-80
[9] = endpoint: mean survival time, dose: 50.0 mg/kg/injection, schedule: Q04DX002 (ip), vehicle: saline with Tween-80
[10] = endpoint: mean survival time, dose: 100.0 mg/kg/injection, schedule: Q04DX002 (ip), vehicle: saline with Tween-80
[11] = endpoint: mean survival time, dose: 200.0 mg/kg/injection, schedule: Q04DX002 (ip), vehicle: saline with Tween-80
[12] = endpoint: mean survival time, dose: 6.25 mg/kg/injection, schedule: Q04DX003 (ip), vehicle: saline
[13] = endpoint: mean survival time, dose: 12.5 mg/kg/injection, schedule: Q04DX003 (ip), vehicle: saline
[14] = endpoint: mean survival time, dose: 25.0 mg/kg/injection, schedule: Q04DX003 (ip), vehicle: saline

Nc1nc(N)c(N=Nc2ccc(S(=O)(=O)O)cc2)c(N)n1
T/C [1]: 94 % of control
T/C [2]: 94 % of control
T/C [3]: 98 % of control

CC1=C(N2CC2)C(=O)C2=C(C1=O)N1CC3C(N3C)C1(O)C2COC(N)=O (stereo not given)
T/C (endpoint: mean survival time, dose: 3.5 mg/kg/injection, schedule: Q01DX001 (ip), vehicle: carboxymethylcellulose (CMC)): 122 % of control
T/C (endpoint: mean survival time, dose: 5.25 mg/kg/injection, schedule: Q01DX001 (ip), vehicle: carboxymethylcellulose (CMC)): 151 % of control
T/C (endpoint: mean survival time, dose: 7.0 mg/kg/injection, schedule: Q01DX001 (ip), vehicle: carboxymethylcellulose (CMC)): 119 % of control

Cc1ccc(S(=O)(=O)CN(O)C(N)=O)cc1
T/C (endpoint: mean survival time, dose: 7.5 mg/kg/injection, schedule: Q01DX009 (ip), vehicle: saline with Tween-80): 93 % of control
T/C (endpoint: mean survival time, dose: 15.0 mg/kg/injection, schedule: Q01DX009 (ip), vehicle: saline with Tween-80): 102 % of control
T/C (endpoint: mean survival time, dose: 30.0 mg/kg/injection, schedule: Q01DX009 (ip), vehicle: saline with Tween-80): 93 % of control
T/C (endpoint: mean survival time, dose: 60.0 mg/kg/injection, schedule: Q01DX009 (ip), vehicle: saline with Tween-80): 107 % of control
T/C (endpoint: mean survival time, dose: 120.0 mg/kg/injection, schedule: Q01DX009 (ip), vehicle: saline with Tween-80): 105 % of control
T/C (endpoint: mean survival time, dose: 240.0 mg/kg/injection, schedule: Q01DX009 (ip), vehicle: saline with Tween-80): 115 % of control

O=C(Cc1cccc2ccccc12)N/N=C/c1ccc2c(c1)CCC2
T/C [4]: 89 % of control
T/C [5]: 95 % of control
T/C [6]: 95 % of control

CCc1ccc(OC2OC(CO)C(OC3OC(CO)C(O)C(O)C3O)C(O)C2O)cc1 (stereo not given)
T/C (endpoint: mean survival time, dose: 75.0 mg/kg/injection, schedule: Q01DX001 (ip), vehicle: steriod suspending solution): 92 % of control
T/C (endpoint: mean survival time, dose: 150.0 mg/kg/injection, schedule: Q01DX001 (ip), vehicle: steriod suspending solution): 92 % of control
T/C (endpoint: mean survival time, dose: 300.0 mg/kg/injection, schedule: Q01DX001 (ip), vehicle: steriod suspending solution): 95 % of control

Oc1ccc(CCCl)cc1
T/C [7]: 91 % of control
T/C [1]: 102 % of control
T/C [2]: 102 % of control

CC(=O)NC1Cn2c3c(c(COC(N)=O)c2C1O)C(=O)C(Nc1ccccc1)=C(C)C3=O (stereo not given)
T/C (endpoint: mean survival time, dose: 2.08 mg/kg/injection, schedule: Q01DX001 (ip), vehicle: carboxymethylcellulose (CMC)): 86 % of control
T/C (endpoint: mean survival time, dose: 3.1 mg/kg/injection, schedule: Q01DX001 (ip), vehicle: carboxymethylcellulose (CMC)): 98 % of control
T/C (endpoint: mean survival time, dose: 4.7 mg/kg/injection, schedule: Q01DX001 (ip), vehicle: carboxymethylcellulose (CMC)): 93 % of control

C[N+](C)(C)C.[Cl-].[Cl-].[Cl][Sn]([Cl])[Cl].[Cl][Sn]([Cl])[Cl].[Ru+]
T/C [8]: 107 % of control
T/C [9]: 96 % of control

CCS(=O)(=O)OC1CCCCCCC1NC(=O)c1ccccc1 (stereo not given)
T/C [7]: 100 % of control
T/C [1]: 97 % of control
T/C [4]: 104 % of control
T/C [5]: 98 % of control

CCCCCCCCCCCc1n(Cc2ccccc2)c2ccccc2[n+]1C
T/C (endpoint: mean survival time, dose: 0.25 mg/kg/injection, schedule: Q01DX009 (ip), vehicle: saline): 117 % of control
T/C (endpoint: mean survival time, dose: 0.25 mg/kg/injection, schedule: Q04DX003 (ip), vehicle: saline): 102 % of control
T/C (endpoint: mean survival time, dose: 0.5 mg/kg/injection, schedule: Q01DX009 (ip), vehicle: saline): 110 % of control
T/C (endpoint: mean survival time, dose: 0.5 mg/kg/injection, schedule: Q04DX003 (ip), vehicle: saline): 104 % of control
T/C (endpoint: mean survival time, dose: 1.0 mg/kg/injection, schedule: Q01DX009 (ip), vehicle: saline): 121 % of control
T/C (endpoint: mean survival time, dose: 1.0 mg/kg/injection, schedule: Q04DX003 (ip), vehicle: saline): 106 % of control

O=C(CNC(=O)Nc1ccc(F)cc1)N/N=C/c1c(O)ccc2ccccc12
T/C [7]: 92 % of control
T/C [1]: 96 % of control
T/C [2]: 96 % of control

CC1CCC2(OC1)OC1CC3C4CCC5(C)CC(=O)CCC5(C)C4CCC3(C)C1C2C (stereo not given)
T/C [10]: 90 % of control
T/C [11]: 86 % of control

O=C1CC2CCCCN2C2=C1CCCC2 (stereo not given)
T/C (endpoint: mean survival time, dose: 100.0 mg/kg/injection, schedule: Q04DX003 (ip), vehicle: acetone): 97 % of control

CCOC(=O)C(O)C(C)(Cl)c1ccccc1 (stereo not given)
T/C [8]: 98 % of control
T/C [9]: 102 % of control
T/C [10]: 95 % of control
T/C [11]: 95 % of control

[NH-]CC[NH-].[NH-]CC[NH-].[NH-]CC[NH-].[Ni]
T/C (endpoint: mean survival time, dose: 6.25 mg/kg/injection, schedule: Q01DX009 (ip), vehicle: saline): 103 % of control
T/C [12]: 97 % of control
T/C (endpoint: mean survival time, dose: 12.5 mg/kg/injection, schedule: Q01DX009 (ip), vehicle: saline): 101 % of control
T/C [13]: 93 % of control
T/C (endpoint: mean survival time, dose: 25.0 mg/kg/injection, schedule: Q01DX009 (ip), vehicle: saline): 92 % of control
T/C [14]: 106 % of control

CCOC(=O)CCC1(C(=O)OC)C(=O)CCCCCCC1C(=O)OC (stereo not given)
T/C [1]: 102 % of control
T/C [2]: 101 % of control
T/C [3]: 93 % of control

O=P(OCCCl)(OCCCl)C(Cl)Cl
T/C (endpoint: mean survival time, dose: 100.0 mg/kg/injection, schedule: Q01DX001 (ip), vehicle: saline): 96 % of control
T/C (endpoint: mean survival time, dose: 200.0 mg/kg/injection, schedule: Q01DX001 (ip), vehicle: saline): 100 % of control
T/C (endpoint: mean survival time, dose: 400.0 mg/kg/injection, schedule: Q01DX001 (ip), vehicle: saline): 97 % of control

Nc1cccc2[nH]c(=O)c3ccccc3c12
T/C (endpoint: mean survival time, dose: 100.0 mg/kg/injection, schedule: Q01DX001 (ip), vehicle: carboxymethylcellulose (CMC)): 100 % of control
T/C (endpoint: mean survival time, dose: 200.0 mg/kg/injection, schedule: Q01DX001 (ip), vehicle: carboxymethylcellulose (CMC)): 97 % of control
T/C (endpoint: mean survival time, dose: 400.0 mg/kg/injection, schedule: Q01DX001 (ip), vehicle: carboxymethylcellulose (CMC)): 100 % of control

Cc1cc(S(=O)(=O)F)cc(Cl)c1S
T/C [10]: 102 % of control

CCC(CC)(C[NH-])C[NH-].[Cl][Pt+2][Cl]
T/C (endpoint: mean survival time, dose: 1.56 mg/kg/injection, schedule: Q04DX003 (ip), vehicle: saline): 105 % of control
T/C (endpoint: mean survival time, dose: 3.12 mg/kg/injection, schedule: Q04DX003 (ip), vehicle: saline): 118 % of control
T/C [12]: 119 % of control
T/C (endpoint: mean survival time, dose: 12.5 mg/kg/injection, schedule: Q04DX003 (ip), vehicle: saline with Tween-80): 319 % of control
T/C [13]: 155 % of control
T/C (endpoint: mean survival time, dose: 25.0 mg/kg/injection, schedule: Q04DX003 (ip), vehicle: saline with Tween-80): 307 % of control
T/C [14]: 227 % of control
T/C (endpoint: mean survival time, dose: 50.0 mg/kg/injection, schedule: Q04DX003 (ip), vehicle: saline with Tween-80): 86 % of control
T/C (endpoint: median survival time, dose: 1.5 mg/kg/injection, schedule: Q01DX009 (ip), vehicle: carboxymethylcellulose (CMC)): 234 % of control
T/C (endpoint: median survival time, dose: 3.0 mg/kg/injection, schedule: Q01DX009 (ip), vehicle: carboxymethylcellulose (CMC)): 203 % of control
T/C (endpoint: median survival time, dose: 6.0 mg/kg/injection, schedule: Q01DX001 (ip), vehicle: carboxymethylcellulose (CMC)): 203 % of control
T/C (endpoint: median survival time, dose: 6.0 mg/kg/injection, schedule: Q01DX009 (ip), vehicle: carboxymethylcellulose (CMC)): 109 % of control
T/C (endpoint: median survival time, dose: 9.0 mg/kg/injection, schedule: Q01DX001 (ip), vehicle: carboxymethylcellulose (CMC)): 312 % of control
T/C (endpoint: median survival time, dose: 9.0 mg/kg/injection, schedule: Q01DX009 (ip), vehicle: carboxymethylcellulose (CMC)): 98 % of control
T/C (endpoint: median survival time, dose: 12.0 mg/kg/injection, schedule: Q01DX001 (ip), vehicle: carboxymethylcellulose (CMC)): 312 % of control
T/C (endpoint: median survival time, dose: 15.0 mg/kg/injection, schedule: Q01DX001 (ip), vehicle: carboxymethylcellulose (CMC)): 106 % of control

O=[N+]([O-])c1ccc(C2C3C(c4ccccc4)=NCCCN32)cc1 (stereo not given)
T/C [4]: 104 % of control
T/C [5]: 97 % of control
T/C [6]: 97 % of control

COc1ccccc1NC(C)=O
T/C [1]: 96 % of control
T/C [4]: 101 % of control
T/C [2]: 98 % of control
T/C [5]: 96 % of control
T/C [3]: 96 % of control
T/C [6]: 101 % of control

C/C(=N/NC(=O)c1ccccc1)c1cccc(O)c1
T/C [1]: 89 % of control
T/C [4]: 94 % of control
T/C [5]: 90 % of control
T/C [3]: 103 % of control
T/C [6]: 97 % of control

CCCCCCCCOc1ccc(Cl)cc1
T/C [10]: 90 % of control
T/C [11]: 90 % of control
T/C (endpoint: mean survival time, dose: 400.0 mg/kg/injection, schedule: Q04DX002 (ip), vehicle: saline with Tween-80): 93 % of control

CCNc1ncc2ccccc2c1-c1ccc(NCCCl)cc1
T/C (endpoint: mean survival time, dose: 25.0 mg/kg/injection, schedule: Q04DX003 (ip), vehicle: other): 98 % of control
T/C (endpoint: mean survival time, dose: 50.0 mg/kg/injection, schedule: Q04DX003 (ip), vehicle: other): 95 % of control
T/C (endpoint: mean survival time, dose: 100.0 mg/kg/injection, schedule: Q04DX003 (ip), vehicle: other): 87 % of control
T/C (endpoint: mean survival time, dose: 200.0 mg/kg/injection, schedule: Q04DX003 (ip), vehicle: other): 105 % of control
T/C (endpoint: mean survival time, dose: 400.0 mg/kg/injection, schedule: Q04DX003 (ip), vehicle: other): 90 % of control
